Assay results published in patent publication US8048888B2, “Anti-proliferative combination therapy using certain platinum-based chemotherapeutic agents and EGFR inhibitors or pyrimidine analogues” (Agennix AG, priority 2005, dated 2011).
Where two headings read alike, the source gives them in different places.

Key:
MCF7 cell line = test: SRB assay, simultaneous JM118 and 5FU, 48 hours; type: cell-based; conditions: Homo sapiens, read-out: Growth inhibition
Procedure: For this experiment the human colorectal carcinoma cell line HCT 116 (ATCC order number: CCL-247; Cancer Res (1981) 41, 1751; J Natl Cancer Inst (1982) 69, 767) and the human adenocarcinoma cell line MCF7 (ATCC order number: HTB-22; Cancer Res (1983) 43, 2831; Science (1985) 230, 943) were used.
5FU was dissolved in 0.1% DMSO at a concentration of 20 mM.
Cells were incubated with both compounds simultaneously.

[1] = test system: MX-1 tumor (human breast carcinoma); conditions: for Median tumor volume / T/C %: capecitabine 750 mg/kg/adm PO Q1Dx8
Procedure: Healthy female SWISS nu/nu mice, 6-7 weeks old, 17-22 g, were obtained from Charles River (L'Arbresle, France). Animals were acclimated for seven days in a specific-pathogen-free (SPF) animal care unit before treatment. MX-1 tumor implants were purchased and provided by Oncodesign (Dijon, France). MX-1 is a human breast carcinoma cell line.
To induce MX-1 tumors in nude mice ten female SWISS nude mice were subcutaneously implanted with thawed fragments of MX-1 tumor 24 hours after whole body irradiation with a γ-source (Co^60, INRA, Dijon, France). Mice were continuously monitored and terminated when tumors reached 700 to 1000 mm^3. Tumors were then surgically excised and homogenous fresh fragments were subcutaneously implanted in the right flanks of 130 SWISS nude mice.
Ninety (90) mice were randomized into 9 groups of 10 mice each.
Suspensions were continuously agitated during administration to mice.
The treatment schedule was as follows (all dosage indicated are dosages per administration): • Mice from group 1 received one daily PO (oral) administration of satraplatin vehicle (arachis oil, see above) for 5 consecutive days from D21 (day 21) to D25 (referred to as Q1D×5) in combination with one daily PO administration of capecitabine vehicle (Citrate buffer containing Arabic gum, see above) for 8 consecutive days from D21 to D28 (Q1D×8), • Mice from group 2 received one daily PO administration of capecitabine at 750 mg/kg (milligram per kilogram of body weight) for 8 consecutive days from D21 to D28 (Q1D×8), • Mice from group 3 received one daily PO administration of satraplatin at 5 mg/kg for 5 consecutive days from D21 to D25 (Q1D×5), • Mice from group 4 received one daily PO administration of satraplatin at 15 mg/kg for 5 consecutive days from D21 to D25 (Q1 D×5), • Mice from group 5 received one daily PO administration of satraplatin at 25 mg/kg for 5 consecutive days from D21 to D25 (Q1D×5), • Mice from group 6 received one daily PO administration of satraplatin at 45 mg/kg for 5 consecutive days from D21 to D25 (Q1D×5), • Mice from group 7 received one daily PO administration of satraplatin at 5 mg/kg for 5 consecutive days from D21 to 025 (Q1D×5) in combination with one daily PO administration of capecitabine at 750 mg/kg for 8 consecutive days from D21 to D28 (Q1D×8), • Mice from group 8 received one daily PO administration of satraplatin at 15 mg/kg for 5 consecutive days from D21 to D25 (Q1D×5) in combination with one daily PO administration of capecitabine at 750 mg/kg for 8 consecutive days from D21 to D28 (Q1D×8), • Mice from group 9 received one daily PO administration of satraplatin at 25 mg/kg for 5 consecutive days from D21 to D25 (Q1D×5) in combination with one daily PO administration of capecitabine at 750 mg/kg for 8 consecutive days from D21 to D28 (Q1D×8). Satraplatin was administered 30 minutes after capecitabine. Satraplatin and capecitabine were administered at a dose volume of 10 ml/kg body weight.
During the course of the experiment, viability and behaviour of mice were recorded every day. Mice body weight and tumor volume was recorded twice a week. Mice were terminated when tumor weight was equivalent to 10% of body weight or when a body weight loss of 20% was observed.
Tumor growth inhibition (T/C %) is defined as the ratio of the median tumor volume of a given treated group (test or reference substance) versus the equivalent median volume from the control group. T/C % is calculated as follows: […]
The optimal value is the minimal T/C % ratio that reflects the maximal tumor growth inhibition achieved.
Tumor Log cell kill was calculated using the following formula:
[formula] wherein DT is the doubling time of the tumor.

A129 cp80 cell line = test: SRB cytotoxicity assay, 48 hours, cisplatin-resistant A129 cp80; type: cell-based
Procedure: (§1) The parental non-mutated cell line A129 was used as control.
(§2) Briefly, cells were plated in 96 well dishes 24 hours prior to compound addition. The assay was terminated with the addition of cold TCA to a final concentration of 10% and the plates were incubated for one hour at 4° C. The plates were then washed 5 times with water and 100 μl of a Sulforhodamine B solution ([…]) was added to each well. The plate was then incubated for 10 minutes at room temperature before removal of unbound dye by washing with 1% acetic acid. The bound dye was solubilized with 10 mM Trizma base and the absorbance read at OD570.
(§3) Numbers in brackets indicate how often experiments were performed. In each single experiment a minimum of three replica wells was used for each drug concentration and cell line. Shown are mean values and standard deviations of the IC50s, as determined in the individual experiments. RR denominates the relative resistance, i.e. the relative level of resistance conferred to the indicated drugs.

A129 = test: SRB cytotoxicity assay, 48 hours, parental cell line A129; type: cell-based; conditions: A129, 48 hours
Procedure: as §1, §2, §3

UM-UC-3 cell line [2] = test: SRB assay, sequential: JM-118 48 hours, followed by gemcitabine 48 hours; type: cell-based; conditions: Homo sapiens, UMUC3, JM118 first, read-out: Growth inhibition
Procedure: (§4) Gemcitabine was dissolved in saline at a concentration of 10 mM. Cells were seeded at 1,500 cells per well.
Cells were incubated with both compounds sequentially, wherein cells were incubated with JM118 first.

UM-UC-3 cell line [3] = test: SRB assay, sequential: gemcitabine 48 hours, followed by JM118 48 hours; type: cell-based; conditions: Homo sapiens, UMUC3, Gemcitabine first, read-out: Growth inhibition
Procedure: as §4
Cells were incubated with both compounds sequentially, wherein cells were incubated with gemcitabine first.

`O=c1[nH]cc(F)c(=O)[nH]1` [5FU, 5-fluorouracil] gave an inhibition at 0.3125 µM (MCF7 cell line; JM118 0 + 5FU 0.3125 μM) of 1.1%, an inhibition at 0.625 µM (MCF7 cell line; JM118 0 + 5FU 0.625 μM) of 2.9% and an inhibition at 1.25 µM (MCF7 cell line; JM118 0 + 5FU 1.25 μM) of 7.2%. The inhibition at 2.5 µM (MCF7 cell line; JM118 0 + 5FU 2.5 μM) was 17.3%, the inhibition at 5 µM (MCF7 cell line; JM118 0 + 5FU 5 μM) was 37.4% and the inhibition at 10 µM (MCF7 cell line; JM118 0 + 5FU 10 μM) was 67.7%.
`CCCCCOC(=O)Nc1nc(=O)n([C@@H]2O[C@H](C)[C@@H](O)[C@H]2O)cc1F` [Capecitabine] was tested, and the “tumor log cell kill” value ([1]; capecitabine 750 mg/kg alone) was 0.2, the Median tumor volume ([1]; D21) was 98.8 mm^3 and the T/C % ([1]; D21) was 124%. The Median tumor volume ([1]; D26) was 217.5 mm^3, the T/C % ([1]; D26) was 114% and the Median tumor volume ([1]; D29) was 322.1 mm^3. The T/C % ([1]; D29) was 81%, the Median tumor volume ([1]; D33) was 498.2 mm^3 and the T/C % ([1]; D33) was 65%. It also gave a Median tumor volume ([1]; D36) of 711.0 mm^3, a T/C % ([1]; D36) of 62% and a Median tumor volume ([1]; D40) of 1046.3 mm^3. The T/C % ([1]; D40) was 66%, the Median tumor volume ([1]; D43) was 1598.0 mm^3 and the T/C % ([1]; D43) was 68%.
With `N.N.[Cl][Pt][Cl]` [Cisplatin] the IC50 (A129 cp80 cell line; A129 cp80, 48 hours) was 15.1 µM, the “RR (relative resistance)” value (A129 cp80 cell line; A129 cp80 versus A129) was 80 +/− 25 and the IC50 (A129) was 230 nM.
Compound `Nc1ccn([C@@H]2O[C@H](CO)[C@@H](O)C2(F)F)c(=O)n1` [Gemcitabine, 2′,2′-difluorodeoxycytidine] has an inhibition at 0.002 µM (UM-UC-3 cell line [2]; JM118 0 + Gemcitabine 0.0020 μM) of 2.6%, an inhibition at 0.0039 µM (UM-UC-3 cell line [2]; JM118 0 + Gemcitabine 0.0039 μM) of 8.7% and an inhibition at 0.0078 µM (UM-UC-3 cell line [2]; JM118 0 + Gemcitabine 0.0078 μM) of 23.4%. It also gave an inhibition at 0.0156 µM (UM-UC-3 cell line [2]; JM118 0 + Gemcitabine 0.0156 μM) of 43.9%, an inhibition at 0.0313 µM (UM-UC-3 cell line [2]; JM118 0 + Gemcitabine 0.0313 μM) of 57.8% and an inhibition at 0.0625 µM (UM-UC-3 cell line [2]; JM118 0 + Gemcitabine 0.0625 μM) of 63.3%. The inhibition at 0.0015625 µM (UM-UC-3 cell line [3]; JM118 0 + Gemcitabine 0.0015625 μM) was 0.2%, the inhibition at 0.003125 µM (UM-UC-3 cell line [3]; JM118 0 + Gemcitabine 0.003125 μM) was 1.2% and the inhibition at 0.00625 µM (UM-UC-3 cell line [3]; JM118 0 + Gemcitabine 0.00625 μM) was 8.3%. For the same compound, the inhibition at 0.0125 µM (UM-UC-3 cell line [3]; JM118 0 + Gemcitabine 0.0125 μM) was 41.7%, the inhibition at 0.025 µM (UM-UC-3 cell line [3]; JM118 0 + Gemcitabine 0.025 μM) was 87.8% and the inhibition at 0.05 µM (UM-UC-3 cell line [3]; JM118 0 + Gemcitabine 0.05 μM) was 103%.
With `CC(=O)[O][Pt]([NH2])([Cl])([Cl])([NH]C1CCCCC1)[O]C(C)=O` [Satraplatin] the toxicity in mice ([1]; satraplatin 45 mg/kg) was “toxic effects”.
